9 compounds from ChEMBL document CHEMBL1201862, “PubChem BioAssay data set” (2004) can be followed below.

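Each compound was tested at five concentrations against cells in 96-well plates for 48 hours. GI50 is the concentration that inhibits growth by half.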 The source made the active and inactive calls. Rule as the data show it: active = GI50 up to about 1.1 µM and inactive = higher.

Assay in all cases: NCI anticancer screen, dose series, 48 h
For test [1], the system named is 786-0.
Test [2] has as its system ACHN.
Test [3] relates to COLO 205.
Test [4] has as its system HCT-15.
The subject of test [5] is HL-60.
Test [6] deals with HOP-18.
The subject of test [7] is HOP-62.
In test [8] the test system is NCI-H23.
Test [9] relates to NCI-H522.
Test [10] relates to OVCAR-5.
The subject of test [11] is OVCAR-8.
The test system of test [12] is SF-295.
For test [13], the system named is SK-MEL-2.
Test [14] has as its system SN12C.
Test [15] deals with SNB-19.
Test [16] deals with SNB-75.
The subject of test [17] is UACC-62.
In test [18] the test system is TK-10.

In the case of `O=C(O)\C=C/C=C/C=C/C=C/C(=O)O`, the GI50 in test [1] is > 100 µM (inactive); in test [2], > 100 µM (inactive); in test [3], > 100 µM (inactive); in test [4], more than 100 µM; in [5], > 100 µM (inactive); in test [6] it was > 100 µM (inactive). Further, the GI50 in [7], in [8], in test [9], in test [10], in test [11] and in test [12] was > 100 µM (inactive) throughout. The GI50 in test [13] is > 100 µM (inactive); in test [14] it was > 100 µM (inactive); in test [15], > 100 µM (inactive); in [16], > 100 µM (inactive); in test [17] it was 90.4 µM (inactive).

`CC1=C(C(=O)Nc2ccc(Cl)c(Cl)c2)C(c2ccco2)C(C(=O)Nc2ccc(Cl)c(Cl)c2)=C(C)N1`: the GI50 in [1] was 13 µM (inactive); in test [2], 5 µM (inactive); in [3] it was 12.9 µM (inactive); in test [4], 11.5 µM; in [5], 19.3 µM (inactive); in [6], 12.5 µM (inactive). Also, the GI50 in [7] is 14 µM (inactive); in [8] it was 17.8 µM (inactive); in [9], 5.73 µM (inactive); in [10], 15.1 µM (inactive); in test [11], 11.2 µM (inactive); in test [12], 7.91 µM (inactive). The GI50 is 12.4 µM (inactive) in test [13]; 11.6 µM (inactive) in test [14]; 12.7 µM (inactive) in [15]; 13.9 µM (inactive) in [16]; 6.44 µM (inactive) in [18]; 12.9 µM (inactive) in test [17].

Turning to `O=c1nc2sc3ccc4ccccc4c3n2nc1O`, the GI50 in test [1] was > 10 µM (inactive); in test [3], 62.4 µM (inactive); in [5], > 100 µM (inactive); in test [6] it was 71.3 µM (inactive); in test [7], 23.8 µM (inactive); in test [8] it was 71.1 µM (inactive). Also, the GI50 is 53.7 µM (inactive) in test [9]; 94.6 µM (inactive) in [11]; 59.4 µM (inactive) in test [12]; 86.5 µM (inactive) in test [14]; 60.1 µM (inactive) in test [15]; 41.1 µM (inactive) in test [16]. The GI50 in test [18] is > 100 µM (inactive); in [17], 46.7 µM (inactive).

In the case of `O=C1/C(=C/c2ccccc2Cl)COc2ccc(Br)cc21`, the GI50 in test [1] is 37.4 µM (inactive); in [2], > 100 µM (inactive); in [3], 73.8 µM (inactive); in [5] it was 18.5 µM (inactive); in test [6], 54.1 µM (inactive); in [7] it was 92.7 µM (inactive). The GI50 in [8] was > 100 µM (inactive); in test [9], 20.6 µM (inactive); in [10] it was > 100 µM (inactive); in [11], 56.9 µM (inactive); in test [12], 37.6 µM (inactive); in test [13] it was 82.8 µM (inactive). Moreover, the results for the GI50 in [16] and in test [18] were 30.4 µM (inactive) and > 100 µM (inactive), respectively.

As for `Cc1ccc(C)c(N2C(=O)C(=O)C(c3nc4ccccc4s3)/C(=N/NC(=O)NN)C2=O)c1` (configuration not stated), the GI50 in [1] was > 100 µM (inactive); in [2], > 100 µM (inactive); in [3] it was > 100 µM (inactive); in test [4], more than 100 µM; in test [5] it was > 100 µM (inactive); in [6] it was > 100 µM (inactive). The GI50 in [7], in test [8], in test [9], in [11], in test [12] and in test [13] was > 100 µM (inactive) throughout. The GI50 in [14], in test [15], in test [16], in test [18] and in test [17] was > 100 µM (inactive) in each case.

Turning to `c1ccc(COc2cccc3cccnc23)cc1`, the GI50 is > 100 µM (inactive) in [1]; > 100 µM (inactive) in [2]; > 100 µM (inactive) in test [3]; 19.9 µM (inactive) in test [5]; 21.6 µM (inactive) in [6]; > 100 µM (inactive) in [7]. In addition, the GI50 in test [8] was 44 µM (inactive); in test [9] it was 50.9 µM (inactive); in test [10], > 100 µM (inactive); in test [11] it was > 100 µM (inactive); in [12], > 100 µM (inactive); in test [14] it was > 100 µM (inactive). Further, the GI50 is > 100 µM (inactive) in test [15], 67.9 µM (inactive) in [16], > 100 µM (inactive) in test [18] and 95.9 µM (inactive) in test [17].

As to `COC1OC(C)C(OCc2ccccc2)C(OS(=O)(=O)c2ccc(C)cc2)C1OS(=O)(=O)c1ccc(C)cc1` (configuration not stated), the GI50 in test [1] was > 100 µM (inactive); in test [2] it was > 100 µM (inactive); in test [3] it was > 100 µM (inactive); in [4], more than 100 µM; in [5], > 100 µM (inactive); in [6], > 100 µM (inactive). Further, the GI50 in test [7], in [8], in test [9], in [10], in [11] and in test [12] was > 100 µM (inactive) each time. In addition, the GI50 in [13], in test [14], in test [15] and in [16] was > 100 µM (inactive) each time.

In the case of `N#CCC(=O)Nc1ccccc1O`, the GI50 is > 100 µM (inactive) in test [1]; > 100 µM (inactive) in [2]; > 100 µM (inactive) in test [3]; more than 100 µM in test [4]; > 100 µM (inactive) in test [5]; > 100 µM (inactive) in test [6]. The GI50 in test [7], in [8], in [9], in test [10], in test [11] and in [12] was > 100 µM (inactive) each time. For the same compound, the GI50 in test [13], in test [14], in [15], in test [16], in test [18] and in test [17] was > 100 µM (inactive) in each case.

On to `O=C(OC[C@H]1O[C@@H](OC(=O)c2cc(O)c(O)c(O)c2)[C@H](OC(=O)c2cc(O)c(O)c(O)c2)[C@@H](OC(=O)c2cc(O)c(O)c(O)c2)[C@@H]1OC(=O)c1cc(O)c(O)c(O)c1)c1cc(O)c(O)c(O)c1` [PENTAGALLOYL GLUCOSE], for which the GI50 in test [1] was 4.99 µM (inactive); in test [2] it was 3.89 µM (inactive); in [3], 4.98 µM (inactive); in [4], 5.21 µM; in test [5], 3.65 µM (inactive); in test [6] it was 36.6 µM (inactive). For the same compound, the GI50 in test [7] is 3.89 µM (inactive); in [8] it was 2.16 µM (inactive); in [9] it was 3.46 µM (inactive); in test [10], 7.94 µM (inactive); in test [11], 5.22 µM (inactive); in test [12], 3.92 µM (inactive). In addition, the GI50 in [13] is 10.7 µM (inactive); in test [14] it was 11.9 µM (inactive); in test [15], 4.88 µM (inactive); in test [18] it was 4.88 µM (inactive); in test [17], 2.26 µM (inactive).
